In ChEMBL document CHEMBL5518232, “Discovery of New Tricyclic Oxime Sampangine Derivatives as Potent Antifungal Agents for the Treatment of Cryptococcosis and Candidiasis” (J Med Chem, 2024):
≈ marks a conversion by molar mass, not a printed value.

How the values were obtained:
Assay type in all cases: functional
Candida albicans [1] = assay: Antifungal activity against Candida albicans SC5314 assessed as reduction in fungal growth incubated for 48 hrs by liquid based microdilution method
Cryptococcus neoformans [2] = assay: Antifungal activity against Cryptococcus neoformans H99 assessed as reduction in fungal growth incubated for 72 hrs by liquid based microdilution method
Candida albicans [3] = assay: Antifungal activity against Candida albicans 0304103 assessed as reduction in fungal growth incubated for 48 hrs by liquid based microdilution method
Candida albicans [4] = assay: Synergistic antifungal activity against Candida albicans 0304103 assessed as fractional inhibitory concentration index by measuring ratio of MIC80 for compound and synergetic / MIC80 for compound alone + MIC80 for fluconazole synergetic / MIC80 for fluconazole alone
Nakaseomyces glabratus = assay: Antifungal activity against Candida glabrata 9073 assessed as reduction in fungal growth incubated for 48 hrs by liquid based microdilution method
Candida albicans [5] = assay: Synergistic antifungal activity against Candida albicans 0304103 assessed as inhibition of fungal growth incubated for 48 hrs in presence of fluconazole by checkerboard microdilution assay
Candida tropicalis = assay: Antifungal activity against Candida tropicalis 10186 assessed as reduction in fungal growth incubated for 48 hrs by liquid based microdilution method
Cryptococcus neoformans [6] = assay: Antifungal activity against Cryptococcus neoformans assessed as reduction in fungal growth incubated for 24 hrs by broth microdilution method
Candida albicans [7] = assay: Antifungal activity against Candida albicans assessed as reduction in fungal growth incubated for 24 hrs by broth microdilution method
Cryptococcus neoformans [8] = assay: Antifungal activity against Cryptococcus neoformans ATCC 34877 assessed as reduction in fungal growth incubated for 72 hrs by liquid based microdilution method
[9] = Antifungal activity against Cryptococcus gattii VGI ATCC 14116 assessed as reduction in fungal growth incubated for 72 hrs by liquid based microdilution method

Structure (SMILES): CO/N=C1/c2ccsc2C(=O)c2ccsc21
- MIC80 (Candida albicans [1]): > 64 µg/mL
- MIC80 (Cryptococcus neoformans [2]): 64 µg/mL (≈ 257 µM)
- MIC80 (Candida albicans [3]): > 64 µg/mL
- fractional inhibitory concentration index (FICI) (Candida albicans [4]): 0.047
- MIC80 (Nakaseomyces glabratus): > 64 µg/mL
- MIC80 (Candida albicans [5]): 2 µg/mL
- MIC80 (Candida tropicalis): > 64 µg/mL

Structure (SMILES): CO/N=C1/c2ccccc2C(=O)c2c(C)noc21
- MIC80 (Candida albicans [1]): > 64 µg/mL
- MIC80 (Cryptococcus neoformans [2]): 32 µg/mL (≈ 132 µM)
- MIC80 (Candida albicans [3]): > 64 µg/mL
- fractional inhibitory concentration index (FICI) (Candida albicans [4]): 0.047
- MIC80 (Nakaseomyces glabratus): > 64 µg/mL
- MIC80 (Candida albicans [5]): 2 µg/mL
- MIC80 (Candida tropicalis): > 64 µg/mL

Structure (SMILES): O=C1c2ccccc2-c2nccc3ccnc1c23 [SAMPANGINE]
- MIC80 (Cryptococcus neoformans [6]): 2 µg/mL (≈ 8.61 µM)
- MIC80 (Candida albicans [7]): 0.5 µg/mL (≈ 2.15 µM)

Structure (SMILES): Cc1noc2c1C(=O)c1ccccc1/C2=N/O
- MIC80 (Candida albicans [1]): > 64 µg/mL
- MIC80 (Cryptococcus neoformans [2]): 8 µg/mL (≈ 35.1 µM)
- MIC80 (Cryptococcus neoformans [8]): 8 µg/mL (≈ 35.1 µM)
- MIC80 (Candida albicans [3]): > 64 µg/mL
- fractional inhibitory concentration index (FICI) (Candida albicans [4]): 0.063
- MIC80 (Nakaseomyces glabratus): > 64 µg/mL
- MIC80 (Candida albicans [5]): 2 µg/mL
- MIC80 (Candida tropicalis): > 64 µg/mL
- MIC80 [9]: 16 µg/mL (≈ 70.1 µM)

Structure (SMILES): Cc1ccnc2c1C(=O)c1sc([N+](=O)[O-])cc1C2=O
- MIC80 (Cryptococcus neoformans [6]): 0.25 µg/mL (≈ 0.912 µM)
- MIC80 (Candida albicans [7]): 0.5 µg/mL (≈ 1.82 µM)

Structure (SMILES): CCCc1noc2c1C(=O)c1sccc1/C2=N/OC
- MIC80 (Candida albicans [1]): > 64 µg/mL
- MIC80 (Cryptococcus neoformans [2]): 4 µg/mL (≈ 14.5 µM)
- MIC80 (Cryptococcus neoformans [8]): 2 µg/mL (≈ 7.24 µM)
- MIC80 (Candida albicans [3]): > 64 µg/mL
- fractional inhibitory concentration index (FICI) (Candida albicans [4]): 0.25
- MIC80 (Nakaseomyces glabratus): > 64 µg/mL
- MIC80 (Candida albicans [5]): 8 µg/mL
- MIC80 (Candida tropicalis): > 64 µg/mL
- MIC80 [9]: 16 µg/mL (≈ 57.9 µM)

Structure (SMILES): CO/N=C1/c2ccoc2C(=O)c2c(C)noc21
- MIC80 (Candida albicans [1]): > 64 µg/mL
- MIC80 (Cryptococcus neoformans [2]): 2 µg/mL (≈ 8.61 µM)
- MIC80 (Cryptococcus neoformans [8]): 1 µg/mL (≈ 4.31 µM)
- MIC80 (Candida albicans [3]): > 64 µg/mL
- fractional inhibitory concentration index (FICI) (Candida albicans [4]): 0.094
- MIC80 (Nakaseomyces glabratus): > 64 µg/mL
- MIC80 (Candida albicans [5]): 4 µg/mL
- MIC80 (Candida tropicalis): > 64 µg/mL
- MIC80 [9]: 8 µg/mL (≈ 34.5 µM)

Structure (SMILES): Cc1noc2c1C(=O)c1sccc1/C2=N/OC(C)C
- MIC80 (Candida albicans [1]): > 64 µg/mL
- MIC80 (Cryptococcus neoformans [2]): > 64 µg/mL
- MIC80 (Candida albicans [3]): > 64 µg/mL
- fractional inhibitory concentration index (FICI) (Candida albicans [4]): 0.063
- MIC80 (Nakaseomyces glabratus): > 64 µg/mL
- MIC80 (Candida albicans [5]): 2 µg/mL
- MIC80 (Candida tropicalis): > 64 µg/mL
